In paper PMC7754785 (ACS Omega, 2020):
Values joined by “and” are separate entries in the source; they are usually repeats but may differ in a detail not shown here. Equal entries are not always repeated.

Key:
Mpro from SARS CoV-2 = Mpro from SARS CoV-2 (Severe acute respiratory syndrome coronavirus 2, UniProt P0DTD1); assay: Surface plasmon resonance binding to immobilized Mpro; conditions: dissociation constant KD, SPR, Mpro immobilized on CM-5 chip; KD = koff/kon
Mpro [1] = target: T1, Mpro (Severe acute respiratory syndrome coronavirus 2, UniProt P0DTD1); assay: Universal protease activity assay with casein as substrate; assay type: biochemical, SARS-CoV-2; conditions: IC50, 10 μM Mpro, 150 μM casein, phosphate buffer pH 7.5, 37 °C
Mpro [2] = target: T1, Mpro; conditions: previous computational studies in our lab; cited from earlier work
Mpro [3] = target: T1, Mpro; conditions: previous computational studies in our lab; cited from earlier work; remark: listed apart in the source

Row | Structure (SMILES) | Kd (Mpro from SARS CoV-2) | IC50 (Mpro [1]) | docking score (Mpro [2]) | MM-PBSA binding free energy (Mpro [3])
1 | Nc1ccn([C@H]2C[C@H](O)[C@@H](COP(=O)(O)OP(=O)(O)OP(=O)(O)OP(=O)(O)OC[C@H]3O[C@@H](n4ccc(=O)[nH]c4=O)[C@H](O)[C@@H]3O)O2)c(=O)n1 [DB04983, Denufosol] | 1400 µM and 1440 µM | 1300 µM |  | 
2 | CSCCNc1nc(SCCC(F)(F)F)nc2c1ncn2[C@@H]1O[C@H](COP(=O)(O)OP(=O)(O)C(Cl)(Cl)P(=O)(O)O)[C@@H](O)[C@H]1O [cangrelor] | 700 µM and 640 µM | 900 µM | -12.28 kcal/mol | 
3 | CC(C)c1nc(CN(C)C(=O)N[C@@H](CCN2CCOCC2)C(=O)N[C@H](CC[C@H](Cc2ccccc2)NC(=O)OCc2cncs2)Cc2ccccc2)cs1 [cobicistat] | ~2.1 µM and 2.1 µM | ~6.7 µM | -12.31 kcal/mol | -11.41 kcal/mol
